{
  "source": "patent US20060024691A1",
  "about": "“Novel pathways in the etiology of cancer” (Buck Institute for Age Research, priority 2004, published 2006)",
  "assay_type_in_all_cases": "cell-based, human",
  "key": {"[1]": {"system": "ERα Ser-167 (67 kD ERα and 52 kD ERα variant)", "settings": "MCF7 nuclear extracts, 30 min", "experimental": "(§1) Human breast cancer cell lines MCF7 and T47D were obtained from the American Type Culture Collection (ATCC). MCF7 cells were maintained in Dulbecco's Modification of Eagle's Medium (Cellgro) supplemented with 10% fetal bovine serum (Cellgro), 1% penicillin/streptomycin (Cellgro) and 10 μg/ml insulin (Sigma). T47D cells were maintained in RPMI (Cellgro) supplemented with 10% fetal bovine serum, 1% penicillin/streptomycin and 10 μg/ml insulin. Treatment conditions for both cell lines involved plating ˜1×10^6 cells in normal media onto 10 cm dishes, attachment and growth for 24 hours followed by a change to estrogen-free culture conditions (phenol red-free DME H-16 supplemented with 10% charcoal stripped serum, 1% penicillin/streptomycin and 10 μg/ml insulin) for an additional 24 hours. Cells were then treated as indicated for 30 minutes before extract preparation. Indicated conditions involved 30 minute pretreatments.\n(§2) Following aspiration of the media and one ice cold PBS wash, cells growing on 10 cm dishes were harvested using a cell scraper and 0.7 ml of ice cold cell lyses buffer ([…], 1.5 mM MgCl2, […] KCl, 1 mM DTT, […] NaFl, 5% glycerol, 0.45% NP40 (Igepal, Sigma) and mincomplete protease inhibitors (Roche)). […] For preparation of high-salt nuclear extracts (nucleoplasm), isolated nuclei were resuspended for 20 minutes in ice cold extraction buffer (0.4 M NaCl, 25 mM Tris pH 7.5, 1 mM DTT, 20% glycerol, 10 mM NaFl and min-complete protease inhibitors (Roche)) followed by a 4° C. centrifugation at 16,000×g for 15 minutes.\n(§3) Equal amounts of protein from the various extracts were mixed with 2× SDS sample buffer (125 mM Tris pH6.8, 20% glycerol, 2% SDS, 0.28 M 2-mercaptoethanol and0.5% Bromphenol Blue), heated for 5 minutes at 90° C. and electrophoresed on NuPAGE 4-12% Bis-Tris gels (Invitrogen) using NuPAGE MOPS SDS running buffer (Invitrogen) and full range Rainbow recombinant protein molecular weight markers (Amersham Pharmacia). […] Membranes were then blocked for 30 minutes in blocking buffer (150 mM NaCl, 20 mM Tris pH 7.5, 0.3% Tween-20 and 4% Nonfat dry milk powerby weight)."}, "[2]": {"system": "ERα Ser-118 (67 kD ERα and 52 kD ERα variant)", "settings": "for Ser-118 phosphorylation of ER induced by treatment: MCF-7/T47D cells, charcoal-stripped media, 30 min, menadione 100 μM, estradiol 10 nM, other quinones at equitoxic doses", "experimental": "as §1, §2, §3"}, "[3]": {"system": "NF-κB p50", "experiment": "Nuclear translocation of NF-κB p50 in MCF-7 cultures", "settings": "10 μM, 30 min"}, "[4]": {"system": "ERK1/ERK2", "experiment": "MAPK activation: ERK1/ERK2 phosphorylation, Western blot", "settings": "MCF7 cells, 30 minutes", "experimental": "as §1\nFor preparation of high-salt nuclear extracts (nucleoplasm), isolated nuclei were resuspended for 20 minutes in ice cold extraction buffer (0.4 M NaCl, 25 mM Tris pH 7.5, 1 mM DTT, 20% glycerol, 10 mM NaFl and min-complete protease inhibitors (Roche)) followed by a 4° C. centrifugation at 16,000×g for 15 minutes.\nMembranes were then blocked for 30 minutes in blocking buffer (150 mM NaCl, 20 mM Tris pH 7.5, 0.3% Tween-20 and 4% Nonfat dry milk powerby weight)."}},
  "note": "Read-outs that look alike come from different tables or passages of the source.",
  "data": [
    {"smiles": "CC1=CC(=O)c2ccccc2C1=O", "note": "[menadione, 2-methyl-1,4-naphthoquinone]", "values": [
      {"measurement": "Ser-167 phosphorylation of ERα induced by treatment", "setting": "[1]", "result": "Ser-167 phosphorylation only on the 52 kD ERα nuclear variant"},
      {"measurement": "Ser-118 phosphorylation of ER induced by treatment", "setting": "[2]", "result": "induced Ser-118 phosphorylation"},
      {"measurement": "Ser-118 phosphorylation of ER induced by treatment", "setting": "[2]; listed as K3", "result": "contained both 67 kD and 52 kD p-Ser-118 ERα"},
      {"measurement": "ER isoform activation on longer exposure", "setting": "[2]; menadione exposures 4-6 hr", "result": "further enhanced activation of the ˜52 kDa delta7 ER isoform while diminishing that of 67 kDa ER"},
      {"measurement": "increase in nuclear translocation of NF-κB p50 vs control treated cells", "setting": "[3]", "result": "> 3", "unit": "fold"},
      {"measurement": "ERK1/ERK2 phosphorylation induced by treatment", "setting": "[4]", "result": "high level of ERK1/ERK2 phosphorylation"}
    ]}
  ]
}
